Laboratory results as given in the supplement of paper PMC13380429.

Tests used:
Settings in all cases: 72 h
Caco-2 [1] = assay: drug sensitivity score (DSS) for viability; higher = more toxic; extreme values may be limits of the assay
Calu-3 [2] = assay: as above
Vero E6 [3] = assay: as above
HepG2 [4] = assay: as above
U2OS [5] = assay: as above
Caco-2 [6] = assay: cell viability relative to DMSO; higher = less toxic
Calu-3 [7] = assay: as above
Vero E6 [8] = assay: as above
HepG2 [9] = assay: as above
U2OS [10] = assay: as above
Caco-2 [11] = assay: relative viability EC50 (midpoint between 100% and the lowest measured viability); higher = less toxic
Calu-3 [12] = assay: as above
Vero E6 [13] = assay: as above
HepG2 [14] = assay: as above
U2OS [15] = assay: as above

Row | Compound | drug sensitivity score (Caco-2 [1]) | drug sensitivity score (Calu-3 [2]) | drug sensitivity score (Vero E6 [3]) | drug sensitivity score (HepG2 [4]) | drug sensitivity score (U2OS [5]) | cell viability (Caco-2 [6]; 1 nM) | cell viability (Caco-2 [6]; 10 nM) | cell viability (Caco-2 [6]; 100 nM) | cell viability (Caco-2 [6]; 1000 nM) | cell viability (Caco-2 [6]; 10000 nM) | cell viability (Calu-3 [7]; 1 nM) | cell viability (Calu-3 [7]; 10 nM) | cell viability (Calu-3 [7]; 100 nM) | cell viability (Calu-3 [7]; 1000 nM) | cell viability (Calu-3 [7]; 10000 nM) | cell viability (Vero E6 [8]; 1 nM) | cell viability (Vero E6 [8]; 10 nM) | cell viability (Vero E6 [8]; 100 nM) | cell viability (Vero E6 [8]; 1000 nM) | cell viability (Vero E6 [8]; 10000 nM) | cell viability (HepG2 [9]; 1 nM) | cell viability (HepG2 [9]; 10 nM) | cell viability (HepG2 [9]; 100 nM) | cell viability (HepG2 [9]; 1000 nM) | cell viability (HepG2 [9]; 10000 nM) | cell viability (U2OS [10]; 1 nM) | cell viability (U2OS [10]; 10 nM) | cell viability (U2OS [10]; 100 nM) | cell viability (U2OS [10]; 1000 nM) | cell viability (U2OS [10]; 10000 nM) | relative viability EC50 (Caco-2 [11]) | relative viability EC50 (Calu-3 [12]) | relative viability EC50 (Vero E6 [13]) | relative viability EC50 (HepG2 [14]) | relative viability EC50 (U2OS [15])
1 | CCN(c1cc(C#CCN2CCOCC2)cc(C(=O)NCc2c(C)cc(C)[nH]c2=O)c1C)[C@H]1CC[C@H](N(C)CCOC)CC1 | 0 | 0 | 0 | 0 | 0 | 92.5% | 103% | 86.4% | 95.3% | 91.6% | 97.6% | 95.3% | 108% | 103% | 103% | 107% | 96.9% | 95.9% | 96.8% | 102% | 92.7% | 122% | 112% | 105% | 91.2% | 94.3% | 95.7% | 96.4% | 97.7% | 103% | > 10 µM | > 10 µM | > 10 µM | > 10 µM | > 10 µM
2 | O=C(O)CCNc1cc(N2CCc3ccccc3CC2)nc(-c2cccnc2)n1 [GSK-J2] | 0.2 | 0 | 0 | 0 | 0 | 96.6% | 100% | 98.6% | 94.8% | 87.1% | 100% | 97.1% | 91.5% | 105% | 97.2% | 97.3% | 108% | 98.9% | 98% | 99.1% | 99.7% | 97.3% | 96.6% | 98.8% | 103% | 98.5% | 95.4% | 94.8% | 98.3% | 91.2% | > 10 µM | > 10 µM | > 10 µM | > 10 µM | > 10 µM
3 | O=S(=O)(/N=C/c1c(O)ccc2ccccc12)c1cccs1 | 0 | 0 | 0 | 0 | 0 | 102% | 95.8% | 97.4% | 95.9% | 103% | 91.3% | 99.3% | 99.8% | 104% | 100% | 99.9% | 102% | 100% | 106% | 94.5% | 100% | 120% | 96.8% | 109% | 99.9% | 103% | 100% | 98.9% | 99.5% | 103% | > 10 µM | > 10 µM | > 10 µM | > 10 µM | > 10 µM
4 | S=C(S)OC1CC2CC1C1CCCC21 (stereo not given) [D609] | 0 | 0 | 0 | 0 | 0 | 100% | 99.2% | 102% | 105% | 102% | 99.3% | 102% | 104% | 103% | 98% | 98.7% | 98% | 102% | 96% | 98.5% | 103% | 98.7% | 102% | 100% | 108% | 100% | 106% | 96.3% | 102% | 96.6% | > 10 µM | > 10 µM | > 10 µM | > 10 µM | > 10 µM
